The text below walks through data of patent US20070270441A1, “Combination” (Altana Pharma AG, priority 2001, published 2007).

The test system of experiment [1] is Collagen-induced arthritis (CIA) in DBA/1 mice. Kind of experiment: Collagen-induced arthritis (CIA) in DBA/1 mice. Type of experiment: in vivo. The conditions noted are these: for severity of arthritis compared with control mice: single drug, oral daily for 10 consecutive days, ROFLUMILAST 1 mg/kg, PUMAFENTRINE hydrochloride 3 mg/kg, significant on days 35 and 39. The procedure: Collagen-induced arthritis (CIA) in DBA/1 mice: Mice were immunized intradermally with 200 μg/mouse of type II (CII) bovine collagen in Freund's complete adjuvant (FCA) and challenged intraperitoneally 21 days later with 200 μg/mouse of CII in saline. The mice were then administered orally either with 1 mg/kg/day of 3-Cyclopropylmethoxy-4-difluoromethoxy-N-(3,5-dichloropyrid-4-yl)-benzamide [INN: ROFLUMILAST], 3 mg/kg/day of (−)-cis-9-ethoxy-8-methoxy-2-methyl-1,2,3,4,4a,10b-hexahydro-6-(4-diisopropylaminocarbonylphenyl)-benzo[c][1,6]naphthyridine hydrochloride [INN: PUMAFENTRINE hydrochloride], 1 mg/kg/day of METHOTREXATE, or with combinations of METHOTREXATE and the PDE inhibitors for 10 consecutive days, starting 2 days after challenge injection. Control mice received either METHOTREXATE alone (1 mg/kg/day) or the vehicle only.
DBA/1 mice were obtained from Harlan Olac (Bicester, UK) and used 8 weeks old. CIA was induced as described previously (Ruchatz, H., et al., J Immunol. 1998, 160(11):5654-60). Briefly, mice were immunised by intradermal injection of 200 μg of acidified type II collagen (Sigma, Poole UK) emulsified in Freund's Complete adjuvant (FCA, Difco, Detroit, Mich., USA). Collagen (200 μg in PBS) was injected intraperitoneally on day 21 (challenge). Mice were individually ear marked for identification. They were monitored daily and scored every other day for signs of arthritis as follows: 0=normal, 1=erythema, 2=erythema plus swelling, 3=extension/loss of function, and total score=sum of four limbs. Paw thickness was measured with a dial-calliper (Kroeplin, Munich, Germany). […] (3 mg/kg, calculated for PUMAFENTRINE), METHOTREXATE (1 mg/kg), or combinations were administered orally daily by a gavage tube for 10 consecutive days. […] Treatment was withdrawn on day 33 and the mice monitored for a further 8 days. Influence of drug treatments on mean clinical index, arthritic paws and paw thickness were analysed by one-way ANOVA at days 31, 35, and 39. Between group differences in incidence of arthritis were analysed by chi-square test.

For experiment [2], the system named is rheumatoid arthritis patients unresponsive to METHOTREXATE alone. To be noted: combination with METHOTREXATE; cited from earlier work.
The subject of experiment [3] is rheumatoid arthritis patients with active disease despite METHOTREXATE treatment. The conditions noted are these: in combination with a fixed low-dose (7.5 mg per week) of METHOTREXATE; small number of patients; cited from earlier work.

“Also recorded” adds a separate entry of the source.

For `CN(Cc1cnc2nc(N)nc(N)c2n1)c1ccc(C(=O)N[C@@H](CCC(=O)O)C(=O)O)cc1` [METHOTREXATE, N-(p{[(2,4-diamino-6-pteridinyl)methyl]methylamino}benzoyl)-L-(+)-glutamic acid], the “clinical improvement compared with control mice” value in experiment [1] (METHOTREXATE alone 1 mg/kg/day, oral, 10 days) is recorded as “failed to produce a significant clinical improvement; also recorded: failed to demonstrate any clinical improvement”.

Turning to `CCOc1cc2c(cc1OC)C(c1ccc(C(=O)N(C(C)C)C(C)C)cc1)=N[C@H]1CCN(C)C[C@@H]21.Cl` [PUMAFENTRINE hydrochloride, (−)-cis-9-ethoxy-8-methoxy-2-methyl-1,2,3,4,4a,10b-hexahydro-6-(4-diisopropylaminocarbonylphenyl)-benzo[c][1,6]naphthyridine hydrochloride], the “severity of arthritis compared with control mice” value in experiment [1] (hydrochloride) is recorded as “effective in reducing the severity of arthritis; also recorded: significantly less severe disease”.

Turning to `O=C(Nc1c(Cl)cncc1Cl)c1ccc(OC(F)F)c(OCC2CC2)c1` [ROFLUMILAST, 3-Cyclopropylmethoxy-4-difluoromethoxy-N-(3,5-dichloropyrid-4-yl)-benzamide], the “severity of arthritis compared with control mice” value in experiment [1] was “effective in reducing the severity of arthritis; also recorded: significantly less severe disease”.

Consider ETANERCEPT, for which the “efficacy in rheumatoid arthritis” value in experiment [2] was “effective”.

As for “INFLIXIMAB: chimeric human-murine monoclonal antibody, a specific inhibitor of tumour necrosis factor alpha”, the “degree and duration of efficacy” value in experiment [3] was “enhanced degree and duration of efficacy”.
